The text below walks through data of publication PMC5967867, “An NMDAR positive and negative allosteric modulator series share a binding site and are interconverted by methyl groups” (eLife, 2018).

One data set deals with GluN1/GluN2A NMDARs (Rattus norvegicus, UniProt P35439+Q00959). The experiment in a line: Two-electrode voltage-clamp recordings, Xenopus laevis oocytes expressing GluN1/GluN2A. To be noted: saturating glutamate/glycine 100/30 µM; for EC50: mean [95% CI], - = not fit, response at 30 µM differed by no more than 15% from control, read-out: EC50 (µM) [conf. int.]; for Emax: mean ± SEM, read-out: Maximal Degree of Modulation (% of control). The format is cell-based. As for the experimental part: (§1) cDNAs for rat wild type NMDAR subunits GluN1-1a (GenBank U11418, U08261; hereafter GluN1 or GluN1a), GluN1-1b (U08263, hereafter GluN1b), GluN2A (D13211), GluN2B (U11419), GluN2C (M91563), and GluN2D (L31611, modified as described in [Monyer et al., 1994]) were provided by Drs. S. Heinemann (Salk Institute), S. Nakanishi (Kyoto University), and P. Seeburg (University of Heidelberg). Site-directed mutagenesis was conducted using the QuikChange kit (Agilent Technologies, Santa Clara, CA) following the recommended protocol. DNA sequencing was used to verify all mutations. The amino acid numbering system started with the initiating methionine as residue number one. For expression in Xenopus laevis oocytes, cDNA constructs were linearized by restriction enzymes, and subsequently used to synthesize in vitro cRNAs following the manufacturer’s protocol (mMessage mMachine, Ambion, ThermoFisher Scientific, Waltham, MA).
(§2) Xenopus laevis stage VI oocytes (Ecocyte Biosciences, Austin, TX) were injected as previously described ([Hansen et al., 2013]) 2–7 days prior to recording with cRNA encoding the NMDAR subunits and stored at 15°C in media containing (in mM) 88 NaCl, 2.4 NaHCO3, 1 KCl, 0.33 Ca(NO3)2, 0.41 CaCl2, 0.82 MgSO4, 5 Tris-HCl; pH was adjusted to 7.4 with NaOH and the solution supplemented with 1 U/mL penicillin, 0.1 mg/mL gentamicin sulfate, and 1 μg/mL streptomycin. Two-electrode voltage-clamp recordings were performed at room temperature (21–23°C) using different internal solutions for voltage and current electrodes (0.3 M and 3.0 M KCl, respectively). All extracellular solutions were made from a solution containing (in mM) 90 NaCl, 1 KCl, 10 HEPES, 0.5 BaCl2, 0.01 EDTA (pH 7.4 with NaOH). Experiments were performed using an eight port Modular Valve Positioner (Hamilton Company, Reno, NV) and controlled by custom software (Easy Oocyte, Emory University, Atlanta, GA)to exchange solutions. Oocyte currents were recorded at a holding potential of −40 mV using a two-electrode voltage-clamp amplifier (OC-725B or OC-725C, Warner Instruments, Hamden, CT). […] In MTSEA experiments, fresh MTSEA solutions (0.2 mM) were prepared and utilized in less than 30 min to limit compound degradation.
(§3) Measurements are given as mean ± SEM unless otherwise indicated. The number of replicate experiments used was chosen to ensure a power level of at least 0.80 when α = 0.05 and when detecting appropriate effect sizes. EC50 and IC50 values and confidence intervals reported were calculated by averaging the log(EC50) or log(IC50) value, determining confidence intervals for mean log(EC50) or log(IC50), and converting back to units of molarity. Statistical significance evaluations (α set to 0.05) were performed using a one-way ANOVA with Dunnett’s multiple comparison test, a paired t–test, or other appropriate tests as described.

The next data set addresses GluN1/GluN2B NMDARs (Rattus norvegicus, UniProt P35439+Q00960). The data set is described as follows: Two-electrode voltage-clamp recordings, Xenopus laevis oocytes expressing GluN1/GluN2B. The format is cell-based. The note with it: saturating glutamate/glycine 100/30 µM; for EC50: mean [95% CI], - = not fit, response at 30 µM differed by no more than 15% from control, read-out: EC50 (µM) [conf. int.]; for Emax: mean ± SEM, read-out: Maximal Degree of Modulation (% of control). As for the experimental part: as §1, §2, §3
(In general: Two-electrode voltage clamp is typically applied to oocytes expressing channels or transporters.)

In another data set the target is GluN1/GluN2C NMDARs (Rattus norvegicus, UniProt P35439+Q00961). The data set is described as follows: Two-electrode voltage-clamp recordings, Xenopus laevis oocytes expressing GluN1/GluN2C. The format is cell-based. The note with it: saturating glutamate/glycine 100/30 µM; for EC50: mean [95% CI], read-out: EC50 (µM) [conf. int.]; for Emax: mean ± SEM, read-out: Maximal Degree of Modulation (% of control). As for the experimental part: as §1, §2, §3

Another data set concerns the target GluN1/GluN2D NMDARs (Rattus norvegicus, UniProt P35439+Q62645). The data set is described as follows: Two-electrode voltage-clamp recordings, Xenopus laevis oocytes expressing GluN1/GluN2D. The format is cell-based. The note with it: for Emax: mean ± SEM, read-out: Maximal Degree of Modulation (% of control). The method, then:
cDNAs for rat wild type NMDAR subunits GluN1-1a (GenBank U11418, U08261; hereafter GluN1 or GluN1a), GluN1-1b (U08263, hereafter GluN1b), GluN2A (D13211), GluN2B (U11419), Glu[…]), and Glu[…], modified as described in [Monyer et al., 1994]) were provided by Drs. S. Heinemann (Salk Institute), S. Nakanishi (Kyoto University), and P. Seeburg (University of Heidelberg). Site-directed mutagenesis was conducted using the QuikChange kit (Agilent Technologies, Santa Clara, CA) following the recommended protocol. DNA sequencing was used to verify all mutations. The amino acid numbering system started with the initiating methionine as residue number one. For expression in Xenopus laevis oocytes, cDNA constructs were linearized by restriction enzymes, and subsequently used to synthesize in vitro cRNAs following the manufacturer's protocol (mMessage mMachine, Ambion, ThermoFisher Scientific, Waltham, MA). […] All extracellular solutions were made from a solution containing (in mM) 90 NaCl, 1 KCl, 10 HEPES, 0.5 BaCl2, 0.01 EDTA (pH 7.4 with NaOH). Experiments were performed using an eight port Modular Valve Positioner (Hamilton Company, Reno, NV) and controlled by custom software (Easy Oocyte, Emory University, Atlanta, GA)to exchange solutions. Oocyte currents were recorded at a holding potential of -40 mV using a two-electrode voltage-clamp amplifier (OC-725B or OC-725C, Warner Instruments, Hamden, CT). […] Measurements are given as mean ± SEM unless otherwise indicated. […] EC50 and IC50 values and confidence intervals reported were calculated by averaging the log(EC50) or log(IC50) value, determining confidence intervals for mean log(EC50) or log(IC50), and converting back to units of molarity. Statistical significance evaluations (α set to 0.05) were performed using a one-way ANOVA with Dunnett's multiple comparison test, a paired t-test, or other appropriate tests as described.

The subject of the next data set is NMDAR. Also on record: method as in Kew et al., 1996. The note with it: ref Kew et al., 1996; cited from earlier work.
Setting [1] is: saturating glutamate/glycine 100/30 µM, mean [95% CI], read-out: EC50 (µM) [conf. int.].
Where [2] appears, read: saturating glutamate/glycine 100/30 µM.

Structures are written as SMILES. Read-outs that look alike come from different tables or passages of the source.

Chain of GluN1/GluN2B NMDARs (Q00960 27-1482, other chains not shown): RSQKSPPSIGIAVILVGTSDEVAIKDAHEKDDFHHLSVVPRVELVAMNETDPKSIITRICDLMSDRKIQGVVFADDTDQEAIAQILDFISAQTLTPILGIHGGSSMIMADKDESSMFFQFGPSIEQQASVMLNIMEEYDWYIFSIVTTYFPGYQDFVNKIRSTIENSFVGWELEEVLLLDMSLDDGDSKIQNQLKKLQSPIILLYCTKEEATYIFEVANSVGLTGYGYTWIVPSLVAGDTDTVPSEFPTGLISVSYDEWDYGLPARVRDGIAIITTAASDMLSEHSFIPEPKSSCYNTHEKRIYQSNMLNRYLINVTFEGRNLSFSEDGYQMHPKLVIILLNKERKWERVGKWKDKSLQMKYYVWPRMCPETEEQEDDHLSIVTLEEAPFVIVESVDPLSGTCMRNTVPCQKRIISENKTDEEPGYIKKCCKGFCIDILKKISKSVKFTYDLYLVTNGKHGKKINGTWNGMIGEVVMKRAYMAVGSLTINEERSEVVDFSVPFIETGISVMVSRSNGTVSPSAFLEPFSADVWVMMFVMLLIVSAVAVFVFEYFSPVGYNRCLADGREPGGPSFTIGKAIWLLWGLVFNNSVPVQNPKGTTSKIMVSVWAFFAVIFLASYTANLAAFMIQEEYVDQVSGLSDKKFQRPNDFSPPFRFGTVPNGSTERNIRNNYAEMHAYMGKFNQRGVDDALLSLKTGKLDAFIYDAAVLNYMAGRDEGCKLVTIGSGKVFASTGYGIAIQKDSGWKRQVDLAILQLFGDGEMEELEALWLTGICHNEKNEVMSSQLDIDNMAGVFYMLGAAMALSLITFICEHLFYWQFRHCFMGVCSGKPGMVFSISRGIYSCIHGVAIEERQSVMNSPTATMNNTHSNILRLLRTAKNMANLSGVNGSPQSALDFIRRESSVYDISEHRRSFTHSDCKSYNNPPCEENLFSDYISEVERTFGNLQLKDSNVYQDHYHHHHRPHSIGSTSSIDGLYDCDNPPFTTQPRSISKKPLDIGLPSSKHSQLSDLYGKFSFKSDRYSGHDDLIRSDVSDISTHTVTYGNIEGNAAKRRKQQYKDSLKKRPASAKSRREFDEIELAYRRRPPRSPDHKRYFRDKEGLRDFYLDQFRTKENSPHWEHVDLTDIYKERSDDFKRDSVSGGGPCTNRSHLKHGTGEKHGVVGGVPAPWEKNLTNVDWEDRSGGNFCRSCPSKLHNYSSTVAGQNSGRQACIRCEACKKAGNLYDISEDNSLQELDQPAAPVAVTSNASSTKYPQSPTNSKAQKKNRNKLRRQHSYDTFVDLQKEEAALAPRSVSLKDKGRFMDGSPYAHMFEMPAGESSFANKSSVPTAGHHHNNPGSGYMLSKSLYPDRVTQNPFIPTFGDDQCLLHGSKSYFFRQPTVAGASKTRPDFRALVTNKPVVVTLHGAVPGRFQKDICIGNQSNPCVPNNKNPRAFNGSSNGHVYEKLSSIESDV
Chain of GluN1/GluN2A NMDARs (Q00959 23-1464, other chains not shown): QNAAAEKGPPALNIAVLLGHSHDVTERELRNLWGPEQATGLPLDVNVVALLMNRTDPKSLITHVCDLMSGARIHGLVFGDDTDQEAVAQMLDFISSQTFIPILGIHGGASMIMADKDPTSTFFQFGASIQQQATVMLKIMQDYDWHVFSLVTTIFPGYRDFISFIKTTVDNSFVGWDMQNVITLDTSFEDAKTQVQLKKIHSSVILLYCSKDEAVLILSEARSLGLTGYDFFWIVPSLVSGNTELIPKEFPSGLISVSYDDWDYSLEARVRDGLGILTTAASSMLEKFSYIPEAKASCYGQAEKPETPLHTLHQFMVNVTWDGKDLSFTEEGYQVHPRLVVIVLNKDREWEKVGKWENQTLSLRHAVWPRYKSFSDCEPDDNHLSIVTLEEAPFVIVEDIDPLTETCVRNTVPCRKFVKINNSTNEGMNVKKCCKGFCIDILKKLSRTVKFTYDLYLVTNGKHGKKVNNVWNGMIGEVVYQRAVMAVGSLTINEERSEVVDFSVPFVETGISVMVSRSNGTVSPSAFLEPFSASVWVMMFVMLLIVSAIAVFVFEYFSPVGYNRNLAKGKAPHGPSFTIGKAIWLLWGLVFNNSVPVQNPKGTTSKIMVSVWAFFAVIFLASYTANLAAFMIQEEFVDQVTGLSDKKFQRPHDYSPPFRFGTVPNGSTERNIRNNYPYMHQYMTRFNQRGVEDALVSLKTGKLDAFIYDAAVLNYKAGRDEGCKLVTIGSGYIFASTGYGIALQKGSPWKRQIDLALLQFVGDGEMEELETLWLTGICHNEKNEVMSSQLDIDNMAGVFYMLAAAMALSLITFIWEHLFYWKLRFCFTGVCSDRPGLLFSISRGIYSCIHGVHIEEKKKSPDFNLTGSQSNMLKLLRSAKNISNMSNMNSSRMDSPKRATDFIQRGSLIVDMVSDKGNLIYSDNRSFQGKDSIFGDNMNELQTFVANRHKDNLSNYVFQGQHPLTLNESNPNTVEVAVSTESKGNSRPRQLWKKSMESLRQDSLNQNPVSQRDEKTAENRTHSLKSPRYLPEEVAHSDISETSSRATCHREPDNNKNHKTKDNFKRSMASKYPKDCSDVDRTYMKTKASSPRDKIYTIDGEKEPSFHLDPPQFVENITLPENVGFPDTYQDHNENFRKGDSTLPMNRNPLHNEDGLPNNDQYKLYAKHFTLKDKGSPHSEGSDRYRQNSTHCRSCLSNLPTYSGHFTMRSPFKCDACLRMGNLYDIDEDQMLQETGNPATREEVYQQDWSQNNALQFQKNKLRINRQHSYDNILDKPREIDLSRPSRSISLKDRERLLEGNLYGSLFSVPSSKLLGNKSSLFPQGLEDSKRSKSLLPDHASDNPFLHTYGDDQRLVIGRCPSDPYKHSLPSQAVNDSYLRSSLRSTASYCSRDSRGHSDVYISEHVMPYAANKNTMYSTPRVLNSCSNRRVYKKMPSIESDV
Chain of GluN1/GluN2D NMDARs (Q62645 28-1323, other chains not shown): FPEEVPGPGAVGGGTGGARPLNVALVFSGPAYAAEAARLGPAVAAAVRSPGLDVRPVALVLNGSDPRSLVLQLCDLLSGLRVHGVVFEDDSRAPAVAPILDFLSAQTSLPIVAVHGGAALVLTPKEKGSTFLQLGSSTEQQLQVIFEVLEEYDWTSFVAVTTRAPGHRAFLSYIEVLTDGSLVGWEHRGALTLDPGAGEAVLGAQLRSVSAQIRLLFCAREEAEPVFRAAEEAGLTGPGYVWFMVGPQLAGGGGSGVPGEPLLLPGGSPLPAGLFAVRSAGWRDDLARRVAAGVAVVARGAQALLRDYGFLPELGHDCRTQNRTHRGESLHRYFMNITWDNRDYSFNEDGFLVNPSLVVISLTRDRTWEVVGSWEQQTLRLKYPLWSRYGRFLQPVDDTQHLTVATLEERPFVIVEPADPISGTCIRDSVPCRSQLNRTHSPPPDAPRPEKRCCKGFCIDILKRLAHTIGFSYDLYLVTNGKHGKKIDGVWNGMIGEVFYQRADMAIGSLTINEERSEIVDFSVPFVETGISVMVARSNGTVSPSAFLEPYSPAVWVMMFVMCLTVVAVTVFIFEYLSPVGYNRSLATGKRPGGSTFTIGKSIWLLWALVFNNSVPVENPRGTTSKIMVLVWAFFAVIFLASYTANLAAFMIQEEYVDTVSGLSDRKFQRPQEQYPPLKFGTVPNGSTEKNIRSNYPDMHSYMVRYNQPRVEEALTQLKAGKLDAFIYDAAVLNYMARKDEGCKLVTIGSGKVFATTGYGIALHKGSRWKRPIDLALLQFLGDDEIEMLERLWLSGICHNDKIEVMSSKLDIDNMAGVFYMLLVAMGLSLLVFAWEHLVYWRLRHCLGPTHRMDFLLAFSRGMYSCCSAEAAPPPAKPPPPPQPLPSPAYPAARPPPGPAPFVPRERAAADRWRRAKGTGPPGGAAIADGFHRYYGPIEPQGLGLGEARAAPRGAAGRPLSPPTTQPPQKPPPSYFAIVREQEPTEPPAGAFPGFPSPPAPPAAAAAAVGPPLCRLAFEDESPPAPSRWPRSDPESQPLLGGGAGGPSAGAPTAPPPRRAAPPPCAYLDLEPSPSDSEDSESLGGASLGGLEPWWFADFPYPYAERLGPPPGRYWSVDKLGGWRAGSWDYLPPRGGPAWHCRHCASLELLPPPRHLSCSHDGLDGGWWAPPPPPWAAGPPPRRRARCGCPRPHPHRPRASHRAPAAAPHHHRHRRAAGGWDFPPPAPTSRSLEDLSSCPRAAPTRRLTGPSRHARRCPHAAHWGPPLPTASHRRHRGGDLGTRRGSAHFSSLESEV

The EC50 is the concentration needed to bring the measured effect to its halfway point. Usually melting point stands for the temperature, or range, at which the solid turns liquid. The molecule `CC(C)OC(=O)c1c(NC(=O)CC2SC(=N)NC2=O)sc2c1CCCC2` (stereo not shown) [EU1794-5, isopropyl 2-(2-(2-imino-4-oxothiazolidin-5-yl)acetamido)-4,5,6,7-tetrahydrobenzo[b]thiophene-3-carboxylate] came in with a melting point of 152 to 154 °C. Further, at GluN1/GluN2A NMDARs, the EC50 worked out at 18 µM and the Emax stood at 36%. Moreover, on GluN1/GluN2B NMDARs, the EC50 turned out to be 2.5 µM and the Emax came to 71%. Also, at GluN1/GluN2C NMDARs, the EC50 was determined as 4 µM and the Emax was 140%. Moreover, on GluN1/GluN2D NMDARs (setting [1]), the EC50 was determined as 9.3 µM.

Turning to `CC1CCc2c(sc(NC(=O)CC3SC(=N)NC3=O)c2C(=O)OC(C)C)C1` (stereo not shown) [EU1794-19, isopropyl 2-(2-(2-imino-4-oxothiazolidin-5-yl)acetamido)-6-methyl-4,5,6,7-tetrahydrobenzo[b]thiophene-3-carboxylate], the melting point is 229 °C (dec.). Besides, on GluN1/GluN2A NMDARs, the EC50 turned out to be 1.1 µM and the Emax is 19%. Further, at GluN1/GluN2B NMDARs, the EC50 was determined as 1.1 µM and the Emax was 43%. At GluN1/GluN2C NMDARs, the EC50 is 0.74 µM and the Emax stood at 32%. Moreover, the EC50 on GluN1/GluN2D NMDARs (setting [1]) was determined as 0.43 µM. Also, the Emax at GluN1/GluN2D NMDARs (setting [2]) stood at 46%.

As for `N=C1NC(=O)C(CC(=O)Nc2sc3c(c2C(=O)OCc2ccccc2)CCCC3)S1` (stereo not shown) [EU1794-25, benzyl 2-(2-(2-imino-4-oxothiazolidin-5-yl)acetamido)-4,5,6,7-tetrahydrobenzo[b]thiophene-3-carboxylate], the EC50 at GluN1/GluN2A NMDARs is above 30 µM; at GluN1/GluN2B NMDARs it was 1 µM; at GluN1/GluN2C NMDARs, 0.77 µM; at GluN1/GluN2D NMDARs (setting [1]), 1 µM. Besides, the Emax was 220% on GluN1/GluN2B NMDARs, 180% at GluN1/GluN2C NMDARs and 250% at GluN1/GluN2D NMDARs (setting [2]).

Take `CCCCOC(=O)c1c(NC(=O)CC2SC(=N)NC2=O)sc2c1CCCC2` (stereo not shown) [EU1794-29, butyl 2-(2-(2-imino-4-oxothiazolidin-5-yl)acetamido)-4,5,6,7-tetrahydrobenzo[b]thiophene-3-carboxylate]: the EC50 is 3.7 µM at GluN1/GluN2A NMDARs, 1.4 µM on GluN1/GluN2B NMDARs, 3.8 µM on GluN1/GluN2C NMDARs and 5.7 µM on GluN1/GluN2D NMDARs (setting [1]). The Emax was 59% on GluN1/GluN2A NMDARs, 140% at GluN1/GluN2B NMDARs, 130% at GluN1/GluN2C NMDARs and 166% on GluN1/GluN2D NMDARs (setting [2]).

For the molecule `N[C@@H](CCC(=O)O)C(=O)O` [Glutamate, reference compound], the EC50 at GluN1/GluN2D NMDARs (read-out: Control Glutamate EC50 (µM) [conf. int.], glutamate EC50 in 30 µM glycine, absence of EU1794-27) is 0.21 µM.

For `CC(C(O)c1ccc(O)cc1)N1CCC(Cc2ccccc2)CC1` (stereo not shown) [ifenprodil], the “residual current at saturating levels” value in the data set on NMDAR is on record as ~ 10%.
